Experimental data published in patent US10336701B2, “Pyridin-2-one derivatives of formula (II) useful as EP3 receptor antagonists” (Janssen Pharmaceutica NV, priority 2017, dated 2019).
pKi: −log10 of the molar value.

Each compound was assayed against T1, EP3 receptor (Homo sapiens, UniProt P43115) (assay: [3H]-PGE2 binding assay (EP3 competition binding)). Conditions: read-out: [3H]-PGE2 Binding Ki.
T1 construct: purchased Millipore HTS092M
T1 sequence (P43115 1-390): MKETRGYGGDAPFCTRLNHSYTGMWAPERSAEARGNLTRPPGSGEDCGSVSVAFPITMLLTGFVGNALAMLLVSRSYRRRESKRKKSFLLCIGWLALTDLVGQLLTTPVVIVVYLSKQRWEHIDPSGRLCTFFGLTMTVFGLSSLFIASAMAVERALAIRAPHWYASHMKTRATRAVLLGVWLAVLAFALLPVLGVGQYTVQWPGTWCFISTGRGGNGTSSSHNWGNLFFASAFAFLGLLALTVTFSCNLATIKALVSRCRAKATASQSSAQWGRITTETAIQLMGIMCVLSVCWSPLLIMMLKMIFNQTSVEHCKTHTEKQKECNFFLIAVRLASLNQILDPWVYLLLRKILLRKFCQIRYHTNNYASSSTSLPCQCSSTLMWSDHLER
Method: EP3 competition binding was determined using the following materials and experimental conditions:
Beads=Perkin Elmer RPNQ0001
EP3 membrane=Millipore HTS092M
Membrane concentration=2 μg/well
Beads concentration=0.25 mg/well
[3H]-PGE2=2 nM; DMSO—0.1%
Binding buffer=50 mM Tris, 10 mM MgCl2, 1 mM • EDTA, PH 7.4.
The binding buffer was removed from refrigeration (@ 4° C.) and allowed to warm to room temperature. Test compound (@ stock concentration of […] in DMSO) was serial dilutes (1:3) with 100% DMSO using Echo plate. Diluted test compound (30 nL) was dispensed to the 384-well assay plate (using Echo 550 Labcyte System). To each well was then added assay buffer (5 μl) and each well was spun. Beads were weighed out, dissolved in assay buffer to a concentration of 0.25 mg/15 μl. Original membrane was diluted with assay buffer to a concentration of 2 μg/5 μl. […] To each test well were then added diluted [3H]-PGE2 (5 μl), diluted membrane (5 μl), and dissolved beads (15 μl). The plate was equilibrated at room temperature on a plate shaker for 2 hours and then read with a TOPCOUNT scintillation plate reader. Results were analyzed using a Prism program with non-linear regression, one-site fit for Ki.
CCn1ncc2c(F)cc(-c3ccc(C4(C(C)C)OCCNC4=O)c(=O)[nH]3)cc21 (stereo not shown) [compound 248, 2-(6-(1-ethyl-4-fluoro-1H-indazol-6-yl)-2-oxo-1,2-dihydropyridin-3-yl)-2-isopropylmorpholin-3-one] showed a pKi of 8.00.
Work on CCn1ncc2c(F)cc(-c3ccc(C(CC)(CC)c4nnc(C(F)(F)F)o4)c(=O)[nH]3)cc21 [Compound #45, 6-(1-ethyl-4-fluoro-1H-indazol-6-yl)-3-(3-(5-(trifluoromethyl)-1,3,4-oxadiazol-2-yl)pentan-3-yl)py-ridine-2(1H)-one] yielded a pKi of 7.23.
Compound CC(C)C(/C=C1/OC(=O)NC1=O)c1ccc(-c2ccc3cccc(C#N)c3c2)[nH]c1=O (stereo not shown) [compound 310, (E)-7-(5-(1-(2,4-dioxooxazolidin-5-ylidene)-3-methylbutan-2-yl)-6-oxo-1,6-dihydropyridin-2-yl)-1-naphthonitrile] has a pKi of 7.15.
CCn1ncc2c(F)cc(-c3ccc(C(CC)(CC)c4nnc(N(C)C)s4)c(=O)[nH]3)cc21 [Compound #48, 3-(3-(5-(dimethylamino)-1,3,4-thiadiazol-2-yl)pentan-3-yl)-6-(1-ethyl-4-fluoro-1H-indazol-6-yl)pyridin-2(1H)-one] showed a pKi of 8.70.
CCn1ncc2c(F)cc(-c3ccc(C(CC4(C)CCNC4=O)C(C)C)c(=O)[nH]3)cc21 (stereo not shown) [compound 146, 6-(1-ethyl-4-fluoro-1H-indazol-6-yl)-3-(3-methyl-1-(3-methyl-2-oxopyrrolidin-3-yl)butan-2-yl)pyridin-2(1H)-one] gave a pKi of 8.22.
Compound CCn1ncc2c(F)cc(-c3ccc(C4CC5CN(S(=O)(=O)C(C)C)CC5C4)c(=O)[nH]3)cc21 (stereo not shown) [compound 205, 6-(1-ethyl-4-fluoro-1H-indazol-6-yl)-3-(2-(isopropylsulfonyl)-octahydrocyclopenta[c]pyrrol-5-yl)pyridin-2(1H)-one] has a pKi of 7.29.
For CCn1ncc2c(F)cc(-c3ccc(C(CC)(CC)c4nnc(N(C)C)o4)c(=O)[nH]3)cc21 [Compound #57, 3-(3-(5-(dimethylamino)-1,3,4-oxadiazol-2-yl)pentan-3-yl)-6-(1-ethyl-4-fluoro-1H-indazol-6-yl)pyridin-2(1H)-one], the pKi was 8.22.
CCn1ncc2c(F)cc(-c3ccc(C(CC4CCNC4=O)C(C)C)c(=O)[nH]3)cc21 (stereo not drawn) [compound 148, anti-6-(1-ethyl-4-fluoro-1H-indazol-6-yl)-3-(3-methyl-1-(2-oxopyrrolidin-3-yl)butan-2-yl)pyridin-2(1H)-one] was tested, and the pKi was 6.10.
CCC(/C=C1/OC(=O)NC1=O)(CC)c1ccc(-c2ccc3cc(F)cc(F)c3c2)[nH]c1=O [compound 32, (E)-5-(2-(6-(6,8-difluoronaphthalen-2-yl)-2-oxo-1,2-dihydropyridin-3-yl)-2-ethylbutylidene)oxazolidine-2,4-dione] showed a pKi of 6.53.
CCn1ncc2c(F)cc(-c3ccc(C4CC5COC(=O)N5C4)c(=O)[nH]3)cc21 (stereo not shown) [compound 215, 6-(6-(1-ethyl-4-fluoro-1H-indazol-6-yl)-2-oxo-1,2-dihydropyridin-3-yl)tetrahydro-1H,3H-pyrrolo[1,2-c]oxazol-3-one] showed a pKi of 6.78.
Compound CCN1CCOc2c(F)cc(-c3ccc(C(/C=C4\CCNC4=O)(CC)CC)c(=O)[nH]3)cc21 [compound 25, (E)-6-(4-ethyl-8-fluoro-3,4-dihydro-2H-benzo[b][1,4]oxazin-6-yl)-3-(3-((2-oxopyrrolidin-3-ylidene)methyl)pentan-3-yl)pyridin-2(1H)-one] has a pKi of less than 5.00.
CCn1ncc2c(F)cc(-c3[nH]c(=O)c(C(CC)(CC)c4nnc[nH]4)cc3F)cc21 [compound 36, 3-(3-(4H-1,2,4-triazol-3-yl)pentan-3-yl)-6-(1-ethyl-4-fluoro-1H-indazol-6-yl)-5-fluoropyridin-2(1H)-one] showed a pKi of 6.71.
Work on CCC(CC)(c1nnc[nH]1)c1ccc(-c2ccc3c(F)cc(F)cc3c2)[nH]c1=O [compound 33, 3-(3-(4H-1,2,4-triazol-3-yl)pentan-3-yl)-6-(5,7-difluoronaphthalen-2-yl)pyridin-2(1H)-one] yielded a pKi of 6.13.
